{"source": "patent US6444477B1", "about": "“Assay method for detecting 5-HT2B antagonists” (Pharmagene Laboratories Limited, priority 2000, dated 2002)", "key": {"[1]": {"molecular_target": "T1, human 5-HT4 receptor (Homo sapiens, UniProt Q13639)", "T1 sequence (Q13639 whole entry)": "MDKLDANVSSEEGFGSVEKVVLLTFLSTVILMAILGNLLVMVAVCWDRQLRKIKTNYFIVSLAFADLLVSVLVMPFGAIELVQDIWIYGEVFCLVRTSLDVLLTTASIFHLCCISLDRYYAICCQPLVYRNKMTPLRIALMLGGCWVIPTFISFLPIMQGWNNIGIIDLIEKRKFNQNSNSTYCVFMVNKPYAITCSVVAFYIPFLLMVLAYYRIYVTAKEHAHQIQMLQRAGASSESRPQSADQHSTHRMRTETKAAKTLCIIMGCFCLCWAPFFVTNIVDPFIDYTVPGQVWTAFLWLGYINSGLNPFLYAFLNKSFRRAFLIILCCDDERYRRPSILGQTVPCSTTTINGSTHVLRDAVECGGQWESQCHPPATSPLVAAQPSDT", "details": "marked #; cited from earlier work"}, "[2]": {"molecular_target": "T2, 5-HT2B receptor (Homo sapiens, UniProt P41595)", "details": "cited from earlier work"}, "[3]": {"molecular_target": "T3, human 5-HT2A receptor (Homo sapiens, UniProt P28223)", "T3 sequence (P28223 whole entry)": "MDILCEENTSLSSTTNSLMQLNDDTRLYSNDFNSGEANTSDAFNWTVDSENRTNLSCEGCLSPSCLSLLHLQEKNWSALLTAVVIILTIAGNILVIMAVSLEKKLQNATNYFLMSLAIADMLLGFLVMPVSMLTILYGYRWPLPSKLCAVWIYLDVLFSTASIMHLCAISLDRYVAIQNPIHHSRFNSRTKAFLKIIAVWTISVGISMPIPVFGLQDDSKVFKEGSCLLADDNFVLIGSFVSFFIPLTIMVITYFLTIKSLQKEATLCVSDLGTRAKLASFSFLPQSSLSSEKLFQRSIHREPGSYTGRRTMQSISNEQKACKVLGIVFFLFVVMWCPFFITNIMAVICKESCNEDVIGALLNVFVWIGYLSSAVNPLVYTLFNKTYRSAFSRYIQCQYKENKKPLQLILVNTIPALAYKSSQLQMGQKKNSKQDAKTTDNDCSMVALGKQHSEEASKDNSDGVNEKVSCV", "details": "cited from earlier work"}, "[4]": {"molecular_target": "T4, human 5-HT2C receptor (Homo sapiens, UniProt P28335)", "T4 sequence (P28335 33-458)": "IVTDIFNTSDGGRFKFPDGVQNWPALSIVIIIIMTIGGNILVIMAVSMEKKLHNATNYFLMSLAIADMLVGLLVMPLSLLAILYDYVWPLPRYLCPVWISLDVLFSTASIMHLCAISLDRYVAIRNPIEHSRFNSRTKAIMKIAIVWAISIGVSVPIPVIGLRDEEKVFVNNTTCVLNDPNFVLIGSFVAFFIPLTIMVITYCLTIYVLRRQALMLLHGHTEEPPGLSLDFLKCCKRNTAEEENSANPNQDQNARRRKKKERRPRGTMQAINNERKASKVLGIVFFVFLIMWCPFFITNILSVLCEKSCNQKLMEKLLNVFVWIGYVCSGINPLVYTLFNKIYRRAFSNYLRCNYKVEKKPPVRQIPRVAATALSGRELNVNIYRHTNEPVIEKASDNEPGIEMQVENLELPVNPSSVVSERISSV", "details": "cited from earlier work"}, "[5]": {"molecular_target": "5-HT receptor in human colon longitudinal muscle (Homo sapiens, UniProt P41595)", "sequence (P41595 whole entry)": "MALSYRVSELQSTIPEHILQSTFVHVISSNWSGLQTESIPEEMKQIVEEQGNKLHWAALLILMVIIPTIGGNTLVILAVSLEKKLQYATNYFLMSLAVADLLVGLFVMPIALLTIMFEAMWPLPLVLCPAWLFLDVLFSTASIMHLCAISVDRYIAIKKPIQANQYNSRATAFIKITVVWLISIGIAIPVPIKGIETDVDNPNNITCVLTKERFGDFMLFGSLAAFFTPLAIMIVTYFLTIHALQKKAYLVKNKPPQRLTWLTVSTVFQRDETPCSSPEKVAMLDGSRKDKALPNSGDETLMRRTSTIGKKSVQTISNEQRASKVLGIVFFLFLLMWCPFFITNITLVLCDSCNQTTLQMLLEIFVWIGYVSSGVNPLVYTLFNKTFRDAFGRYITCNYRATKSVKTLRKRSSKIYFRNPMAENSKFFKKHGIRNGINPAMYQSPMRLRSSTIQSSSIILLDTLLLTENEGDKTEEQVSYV", "assay": "5-HT-induced potentiation of electrically stimulated contractions of human colon longitudinal muscle strips", "format": "cell-based"}, "[6]": {"molecular_target": "T1, human 5-HT4 receptor", "details": "cited from earlier work"}, "[7]": {"molecular_target": "T2, 5-HT2B receptor", "details": "cited from earlier work", "remark": "listed apart in the source"}, "[8]": {"molecular_target": "T4, human 5-HT2C receptor", "details": "cited from earlier work", "remark": "listed apart in the source"}, "[9]": {"test_system": "5-HT receptor in human colon longitudinal muscle", "assay": "5-HT-induced potentiation of electrically stimulated contractions of human colon longitudinal muscle strips", "format": "cell-based"}, "[10]": {"molecular_target": "T3, human 5-HT2A receptor", "details": "cited from earlier work", "remark": "listed apart in the source"}, "[11]": {"molecular_target": "T2, 5-HT2B receptor", "details": "cited from earlier work", "remark": "listed apart in the source"}}, "note": "Where two headings read alike, the source gives them in different places. Marks after values point to notes of the source that are not given here.", "data": [{"compound": "Cc1cc2c(cc1Cl)N(C(=O)Nc1ccc(Oc3cccnc3C)nc1)CC2", "note": "[SB 242084]", "values": [{"measurement": "affinity from binding data (#) at human 5-HT4 receptor", "setting": "[1]", "result": "<5.0^#"}, {"measurement": "affinity from binding data (#) at human 5-HT2B receptor", "setting": "[2]", "result": "7.0^#"}, {"measurement": "affinity from binding data (#) at human 5-HT2A receptor", "setting": "[3]", "result": "6.8^#"}, {"measurement": "affinity from binding data (#) at human 5-HT2C receptor", "setting": "[4]", "result": "<6.0^#"}, {"measurement": "pKB estimate for antagonists at the 5-HT receptor in colon", "setting": "[5]; human colon longitudinal muscle, at least 3 concentrations (methiothepin a single concentration), at least 3 donors", "result": "6.3 ± 0.2"}]}, {"compound": "O=C(c1ccc(F)cc1)C1CCN(CCn2c(=O)[nH]c3ccccc3c2=O)CC1", "note": "[Ketanserin]", "values": [{"measurement": "pKB or pA2 for antagonists (*) at human 5-HT4 receptor", "setting": "[6]; marked *", "result": "4.7*"}]}, {"compound": "COc1ccc2[nH]cc(CCN)c2c1", "note": "[5-MeOT]", "values": [{"measurement": "pEC50 for agonists at the 5-HT receptor in colon", "setting": "[5]", "result": "6.8 ± 0.2"}, {"measurement": "pEC50 for agonists at human 5-HT2B receptor", "setting": "[7]", "result": 7.6}, {"measurement": "pEC50 for agonists at human 5-HT4 receptor", "setting": "[6]", "result": 6.2}]}, {"compound": "CC[C@@H](CO)NC(=O)[C@@H]1C=C2c3cccc4c3c(cn4C)C[C@H]2N(C)C1", "note": "[Methysergide]", "values": [{"measurement": "pKB or pA2 for antagonists (*) at human 5-HT2C receptor", "setting": "[8]", "result": "8.9*"}, {"measurement": "pKB or pA2 for antagonists (*) at human 5-HT4 receptor", "setting": "[6]; marked *", "result": "<5.0*"}]}, {"compound": "NC1=N[C@H](O)[C@H]2[C@H]3O[C@]4(O)O[C@@H]([C@@H](O)[C@@]2(N1)[C@@H]4O)[C@]3(O)CO", "note": "[tetrodotoxin]", "values": [{"measurement": "effect on contractile responses of colon smooth muscle to electrical stimulation", "setting": "[9]", "result": "inhibited"}]}, {"compound": "Cc1cc(NC(=O)Nc2ccc3c(ccn3C)c2)sn1", "note": "[SB 204741, N-(1-methyl-5-indolyl)-N′-(3-methyl-5-isothiazolyl) urea]", "values": [{"measurement": "pKB or pA2 for antagonists (*) at human 5-HT2A receptor", "setting": "[10]", "result": "<5.0*"}, {"measurement": "Kb", "setting": "[5]", "result": 158, "unit": "nM"}, {"measurement": "antagonist potency against 5-HT response in human colon", "setting": "[5]", "result": 6.8}, {"measurement": "pKB or pA2 for antagonists (*) at human 5-HT2B receptor", "setting": "[7]; marked *", "result": "7.0*"}, {"measurement": "affinity at human 5-HT4 receptor", "setting": "[6]; neither * nor # printed", "result": "<5.0"}]}, {"compound": "N-(1-methyl-1H-indol-5-yl)N′-(-bezyl)-2,3,4,9-tetrahydro-1H-beta-carboline [LY-23728]", "values": [{"measurement": "selectivity for 5-HT2B over 5-HT2C and 5-HT2A receptors", "setting": "[11]", "result": 100, "unit": "fold"}]}, {"compound": "CN1[C@@H]2CC[C@H]1C[C@@H](OC(=O)C(CO)c1ccccc1)C2", "note": "(stereo partly shown) [atropine]", "values": [{"measurement": "effect on contractile responses of colon smooth muscle to electrical stimulation", "setting": "[9]", "result": "inhibited"}]}, {"compound": "CC(N)Cc1c[nH]c2ccc(O)cc12", "note": "(stereo not drawn) [Alpha-Me5-HT]", "values": [{"measurement": "pEC50 for agonists at the 5-HT receptor in colon", "setting": "[5]; human colon longitudinal muscle, mean ± s.e.mean, at least 3 donors", "result": "8.5 ± 0.1"}, {"measurement": "pEC50 for agonists at human 5-HT2B receptor", "setting": "[7]", "result": 8.4}, {"measurement": "pEC50 for agonists at human 5-HT4 receptor", "setting": "[6]", "result": 6.2}]}, {"compound": "Cl.Cn1ccc2cc(NC(=O)Nc3cccnc3)ccc21", "note": "[SB-200646, N-(1-methyl-5-indolyl)-N′-(3-pyridyl)urea hydrochloride]", "values": [{"measurement": "selectivity between 5-HT2B and 5-HT2C receptors", "setting": "[11]", "result": "Non-selective"}]}, {"compound": "Cn1ccc2cc3c(cc21)CCN3C(=O)Nc1cccnc1", "note": "[SB 206553, 5-methyl-1-(3-pyridylcarbamoyl)-1,2,3,5-tetrahydropyrrolo [2,3-f]indole]", "values": [{"measurement": "affinity from binding data (#) at human 5-HT2A receptor", "setting": "[3]; marked #", "result": "6.0^#"}, {"measurement": "Kb", "setting": "[5]", "result": 3.16, "unit": "nM"}, {"measurement": "antagonist potency against 5-HT response in human colon", "setting": "[5]", "result": 8.5}, {"measurement": "pKB or pA2 for antagonists (*) at human 5-HT2B receptor", "setting": "[7]", "result": "9.0*"}]}, {"compound": "CC(C)c1cc(-c2ccc(F)c3ccccc23)nc(N)n1", "note": "[RS 127445, 2-amino-4-(4-fluoronaphth-1-yl)-6-isopropylpyrimidine]", "values": [{"measurement": "pKB or pA2 for antagonists (*) at human 5-HT2C receptor", "setting": "[8]; marked *", "result": "6.4*"}, {"measurement": "affinity from binding data (#) at human 5-HT2B receptor", "setting": "[2]; marked #", "result": "9.5^#"}, {"measurement": "Kb", "setting": "[5]", "result": 0.398, "unit": "nM"}]}, {"compound": "COC(=O)[C@@H]1[C@H]2C[C@H]3c4[nH]c5ccccc5c4CCN3C[C@@H]2CC[C@@H]1O", "note": "[Yohimbine]", "values": [{"measurement": "affinity at human 5-HT2C receptor", "setting": "[8]", "result": "<5.0"}]}, {"compound": "CSc1ccc2c(c1)C(N1CCN(C)CC1)Cc1ccccc1S2", "note": "(stereo not shown) [Methiothepin]", "values": [{"measurement": "pKB or pA2 for antagonists (*) at human 5-HT4 receptor", "setting": "[6]", "result": "<6.0*"}]}, {"compound": "Cc1cc2c(cc1Cl)N(C(=O)Nc1cccc3ncccc13)CC2", "note": "[SB-215505, 6-chloro-5-methyl-N-(5-quinolyl)-2,3-dihydro-1H-indole-1-carboxamide]", "values": [{"measurement": "potency as 5-HT2B receptor antagonist", "setting": "[11]", "result": 9.9}, {"measurement": "selectivity for 5-HT2B over 5-HT2C and 5-HT2A receptors", "setting": "[11]", "result": 100, "unit": "fold"}]}]}
